Measurements taken from article PMC8903829 (eLife, 2022).

Columns and labels:
Assay in all cases: Qube 384 automated patch-clamp, inactivated-state inhibition
Assay type in all cases: cell-based
hNaV1.7 = target: T1, hNaV1.7 (Homo sapiens, UniProt Q15858)
T1 construct: expression vector containing the full-length cDNA coding for specific human and mouse sodium channel α-subunit; expressed in transfected cells
Excerpt: (§1) All of the cell lines tested negative for mycoplasma.
(§2) Inorm(CPD)=(ICPD−Icontrol)/(ITTX−Icontrol).

mNaV1.1 = target: T2, mNaV1.1 (Mus musculus, UniProt A2APX8)
T2 construct: expression vector containing the full-length cDNA coding for specific human and mouse sodium channel α-subunit; expressed in transfected cells
Excerpt: as §1, §2

mNaV1.2 = target: T3, mNaV1.2 (Mus musculus, UniProt B1AWN6)
T3 construct: expression vector containing the full-length cDNA coding for specific human and mouse sodium channel α-subunit; expressed in transfected cells
Excerpt: as §1, §2

hNaV1.3 = target: T4, hNaV1.3 (Homo sapiens, UniProt Q9NY46)
T4 construct: expression vector containing the full-length cDNA coding for specific human and mouse sodium channel α-subunit; expressed in transfected cells
Excerpt: as §1, §2

hNaV1.2 = target: T5, hNaV1.2 (Homo sapiens, UniProt Q99250)
T5 construct: expression vector containing the full-length cDNA coding for specific human and mouse sodium channel α-subunit; expressed in transfected cells
Excerpt: as §1, §2

hNaV1.6 = target: T6, hNaV1.6 (Homo sapiens, UniProt Q9UQD0); conditions: for hNav1.6 current in (352)/(Vehicle), mean: Inactivated (-45mV)
T6 construct: expression vector containing the full-length cDNA coding for specific human and mouse sodium channel α-subunit; expressed in transfected cells
T6 sequence (Q9UQD0 whole entry): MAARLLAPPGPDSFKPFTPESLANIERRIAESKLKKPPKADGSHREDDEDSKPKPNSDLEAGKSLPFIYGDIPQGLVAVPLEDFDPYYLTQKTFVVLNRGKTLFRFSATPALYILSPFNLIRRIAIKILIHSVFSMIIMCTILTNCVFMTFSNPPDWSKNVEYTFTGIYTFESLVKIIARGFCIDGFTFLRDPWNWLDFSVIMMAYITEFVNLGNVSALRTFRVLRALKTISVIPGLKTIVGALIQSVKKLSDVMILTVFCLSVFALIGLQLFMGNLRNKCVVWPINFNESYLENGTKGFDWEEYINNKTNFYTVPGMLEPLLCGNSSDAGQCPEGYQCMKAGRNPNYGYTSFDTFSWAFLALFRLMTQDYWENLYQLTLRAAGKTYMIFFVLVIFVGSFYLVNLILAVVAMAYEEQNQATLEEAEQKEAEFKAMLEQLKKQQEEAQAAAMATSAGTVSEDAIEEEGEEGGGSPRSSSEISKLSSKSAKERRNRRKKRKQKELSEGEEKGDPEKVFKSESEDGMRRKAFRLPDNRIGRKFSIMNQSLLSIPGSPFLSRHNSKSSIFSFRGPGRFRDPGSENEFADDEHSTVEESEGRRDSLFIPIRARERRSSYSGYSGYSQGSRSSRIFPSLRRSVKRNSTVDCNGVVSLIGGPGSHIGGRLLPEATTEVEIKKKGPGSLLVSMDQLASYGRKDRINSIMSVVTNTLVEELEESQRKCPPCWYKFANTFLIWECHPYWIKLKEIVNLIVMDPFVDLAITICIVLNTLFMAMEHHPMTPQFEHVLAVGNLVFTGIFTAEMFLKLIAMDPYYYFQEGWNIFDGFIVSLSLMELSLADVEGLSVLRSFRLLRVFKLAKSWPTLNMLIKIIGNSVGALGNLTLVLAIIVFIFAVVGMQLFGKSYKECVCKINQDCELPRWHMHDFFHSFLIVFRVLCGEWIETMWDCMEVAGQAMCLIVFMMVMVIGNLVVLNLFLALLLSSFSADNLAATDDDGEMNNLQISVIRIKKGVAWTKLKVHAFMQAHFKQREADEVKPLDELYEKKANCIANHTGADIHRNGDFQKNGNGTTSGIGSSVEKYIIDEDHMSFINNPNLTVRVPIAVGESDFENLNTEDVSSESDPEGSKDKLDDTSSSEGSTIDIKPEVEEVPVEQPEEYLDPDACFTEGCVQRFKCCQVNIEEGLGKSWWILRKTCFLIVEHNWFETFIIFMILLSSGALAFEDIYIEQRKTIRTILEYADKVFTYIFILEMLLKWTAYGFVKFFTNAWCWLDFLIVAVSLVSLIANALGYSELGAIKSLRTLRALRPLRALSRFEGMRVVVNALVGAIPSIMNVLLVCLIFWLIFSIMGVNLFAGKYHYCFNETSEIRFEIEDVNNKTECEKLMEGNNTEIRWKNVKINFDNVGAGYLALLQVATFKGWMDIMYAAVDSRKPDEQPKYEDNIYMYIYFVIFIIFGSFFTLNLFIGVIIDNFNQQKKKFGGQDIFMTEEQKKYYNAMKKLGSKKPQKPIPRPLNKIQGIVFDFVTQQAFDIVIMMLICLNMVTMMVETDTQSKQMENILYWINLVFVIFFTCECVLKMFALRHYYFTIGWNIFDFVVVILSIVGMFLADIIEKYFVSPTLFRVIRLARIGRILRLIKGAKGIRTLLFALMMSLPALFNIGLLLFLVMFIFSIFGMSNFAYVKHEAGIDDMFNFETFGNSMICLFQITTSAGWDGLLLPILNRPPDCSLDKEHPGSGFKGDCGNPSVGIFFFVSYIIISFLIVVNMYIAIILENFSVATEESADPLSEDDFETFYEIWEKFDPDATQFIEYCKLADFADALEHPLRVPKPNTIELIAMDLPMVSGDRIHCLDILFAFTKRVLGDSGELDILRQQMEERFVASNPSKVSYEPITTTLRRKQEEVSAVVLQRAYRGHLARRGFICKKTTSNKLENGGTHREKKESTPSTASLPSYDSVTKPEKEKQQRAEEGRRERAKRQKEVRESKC

T5 sequence (Q99250 whole entry): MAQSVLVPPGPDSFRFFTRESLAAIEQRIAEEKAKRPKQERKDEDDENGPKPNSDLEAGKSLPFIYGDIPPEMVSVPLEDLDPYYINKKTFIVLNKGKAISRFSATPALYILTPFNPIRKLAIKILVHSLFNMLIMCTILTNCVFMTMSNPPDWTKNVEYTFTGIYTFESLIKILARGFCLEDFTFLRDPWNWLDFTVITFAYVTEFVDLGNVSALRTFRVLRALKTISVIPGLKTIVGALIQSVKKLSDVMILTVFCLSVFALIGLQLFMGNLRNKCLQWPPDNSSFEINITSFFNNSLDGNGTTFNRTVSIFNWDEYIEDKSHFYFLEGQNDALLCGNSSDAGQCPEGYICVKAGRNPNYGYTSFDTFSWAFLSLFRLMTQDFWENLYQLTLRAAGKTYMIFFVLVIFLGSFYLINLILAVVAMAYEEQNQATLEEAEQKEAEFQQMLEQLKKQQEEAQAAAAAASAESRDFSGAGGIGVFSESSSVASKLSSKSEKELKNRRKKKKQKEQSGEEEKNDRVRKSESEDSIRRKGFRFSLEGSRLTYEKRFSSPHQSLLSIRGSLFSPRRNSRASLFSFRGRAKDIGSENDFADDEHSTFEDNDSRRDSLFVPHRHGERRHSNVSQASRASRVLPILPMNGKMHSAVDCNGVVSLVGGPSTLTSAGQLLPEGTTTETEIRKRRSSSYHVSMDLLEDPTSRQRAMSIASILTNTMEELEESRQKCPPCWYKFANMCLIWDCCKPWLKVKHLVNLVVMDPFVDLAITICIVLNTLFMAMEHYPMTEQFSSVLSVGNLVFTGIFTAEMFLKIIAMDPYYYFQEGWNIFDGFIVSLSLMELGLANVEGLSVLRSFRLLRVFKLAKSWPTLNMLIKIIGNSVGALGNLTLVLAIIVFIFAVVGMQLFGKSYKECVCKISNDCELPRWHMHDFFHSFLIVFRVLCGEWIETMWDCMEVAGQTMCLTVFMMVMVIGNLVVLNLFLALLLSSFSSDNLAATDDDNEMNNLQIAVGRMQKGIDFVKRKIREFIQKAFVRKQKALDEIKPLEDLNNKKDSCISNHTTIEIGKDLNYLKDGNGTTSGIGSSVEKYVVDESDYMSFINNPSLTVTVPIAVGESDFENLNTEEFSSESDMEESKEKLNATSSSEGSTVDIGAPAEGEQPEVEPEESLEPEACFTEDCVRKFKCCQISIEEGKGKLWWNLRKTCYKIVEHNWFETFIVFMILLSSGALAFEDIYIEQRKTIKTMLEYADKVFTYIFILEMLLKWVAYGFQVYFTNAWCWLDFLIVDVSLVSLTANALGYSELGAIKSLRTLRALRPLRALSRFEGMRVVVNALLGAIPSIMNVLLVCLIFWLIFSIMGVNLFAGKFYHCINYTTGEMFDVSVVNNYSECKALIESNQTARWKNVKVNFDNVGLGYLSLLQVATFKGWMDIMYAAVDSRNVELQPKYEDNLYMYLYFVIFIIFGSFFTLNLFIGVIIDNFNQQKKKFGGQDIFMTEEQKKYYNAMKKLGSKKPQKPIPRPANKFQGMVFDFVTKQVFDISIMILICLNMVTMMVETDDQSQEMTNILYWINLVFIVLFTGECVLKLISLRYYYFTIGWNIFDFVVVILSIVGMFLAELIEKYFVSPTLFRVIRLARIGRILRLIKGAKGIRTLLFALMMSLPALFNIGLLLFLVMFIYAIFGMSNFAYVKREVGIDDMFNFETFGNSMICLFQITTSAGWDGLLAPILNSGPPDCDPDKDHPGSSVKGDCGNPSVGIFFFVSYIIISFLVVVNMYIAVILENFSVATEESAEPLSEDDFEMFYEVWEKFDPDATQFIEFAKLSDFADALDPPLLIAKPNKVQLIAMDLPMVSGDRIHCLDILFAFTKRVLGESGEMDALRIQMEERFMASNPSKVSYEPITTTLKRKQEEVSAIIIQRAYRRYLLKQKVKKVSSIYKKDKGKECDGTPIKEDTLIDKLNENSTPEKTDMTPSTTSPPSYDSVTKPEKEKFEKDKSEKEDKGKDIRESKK

Cc1cc(S(=O)(=O)Nc2cscn2)c(F)cc1N(C)[C@H]1CCN(Cc2ccccc2)C1 [NBI-921352]
hNav1.7 current (352)/(Vehicle), mean (hNaV1.7; -8.30103 Log M): -0.02 | IC50 (hNaV1.7; Vh -60 mV, HEK-293): 14 µM | mNaV1.1 current (352)/(Vehicle) (mNaV1.1; -4.22185 Log M): 0.61 | mNaV1.1 current (352)/(Vehicle) (mNaV1.1; -4.69897 Log M): 0.28 | mNaV1.1 current (352)/(Vehicle) (mNaV1.1; -5.17607 Log M): 0.19 | mNaV1.1 current (352)/(Vehicle) (mNaV1.1; -5.65326 Log M): 0.12 | mNaV1.1 current (352)/(Vehicle) (mNaV1.1; -6.13018 Log M): 0.05 | mNaV1.1 current (352)/(Vehicle) (mNaV1.1; -6.6073 Log M): -0.03 | mNaV1.1 current (352)/(Vehicle) (mNaV1.1; -7.08619 Log M): -0.01 | mNaV1.1 current (352)/(Vehicle) (mNaV1.1; -7.56864 Log M): 0 | IC50 (mNaV1.1; Vh -45 mV): 41 µM | mNaV1.2 current (352)/(Vehicle) (mNaV1.2; -4.22185 Log M): 0.86 | mNaV1.2 current (352)/(Vehicle) (mNaV1.2; -4.69897 Log M): 0.58 | mNaV1.2 current (352)/(Vehicle) (mNaV1.2; -5.17607 Log M): 0.39 | mNaV1.2 current (352)/(Vehicle) (mNaV1.2; -5.65326 Log M): 0.19 | mNaV1.2 current (352)/(Vehicle) (mNaV1.2; -6.13018 Log M): 0.14 | mNaV1.2 current (352)/(Vehicle) (mNaV1.2; -6.6073 Log M): 0.04 | mNaV1.2 current (352)/(Vehicle) (mNaV1.2; -7.08619 Log M): 0.08 | mNaV1.2 current (352)/(Vehicle) (mNaV1.2; -7.56864 Log M): 0.05 | IC50 (mNaV1.2; Vh -45 mV): 11 µM | inhibition at 30 µM (hNaV1.3; 30 µM, NaV1.3, read-out: inhibition at the highest concentration tested): < 50% | hNaV1.3 current (352)/(Vehicle), mean (hNaV1.3; -4.52288 Log M): 0.17 | hNaV1.3 current (352)/(Vehicle), mean (hNaV1.3; -5 Log M): 0.03 | hNaV1.3 current (352)/(Vehicle), mean (hNaV1.3; -5.47716 Log M): 0.01 | hNaV1.3 current (352)/(Vehicle), mean (hNaV1.3; -5.95429 Log M): -0.01 | hNaV1.3 current (352)/(Vehicle), mean (hNaV1.3; -6.91009 Log M): 0.01 | hNaV1.3 current (352)/(Vehicle), mean (hNaV1.3; -7.38722 Log M): 0.02 | hNaV1.3 current (352)/(Vehicle), mean (hNaV1.3; -7.85387 Log M): -0.01 | IC50 (hNaV1.3; Vh -45 mV, HEK-293): > 30 µM | hNav1.2 current (352)/(Vehicle), mean (hNaV1.2; -4 Log M): 0.88 | hNav1.2 current (352)/(Vehicle), mean (hNaV1.2; -4.47713 Log M): 0.78 | hNav1.2 current (352)/(Vehicle), mean (hNaV1.2; -4.95425 Log M): 0.6 | hNav1.2 current (352)/(Vehicle), mean (hNaV1.2; -5 Log M): 0.66 | hNav1.2 current (352)/(Vehicle), mean (hNaV1.2; -5.43133 Log M): 0.42 | hNav1.2 current (352)/(Vehicle), mean (hNaV1.2; -5.47716 Log M): 0.44 | hNav1.2 current (352)/(Vehicle), mean (hNaV1.2; -5.90833 Log M): 0.21 | hNav1.2 current (352)/(Vehicle), mean (hNaV1.2; -5.95429 Log M): 0.14 | hNav1.2 current (352)/(Vehicle), mean (hNaV1.2; -6.3851 Log M): 0.11 | hNav1.2 current (352)/(Vehicle), mean (hNaV1.2; -6.86328 Log M): 0.04 | hNav1.2 current (352)/(Vehicle), mean (hNaV1.2; -6.91009 Log M): 0.03 | hNav1.2 current (352)/(Vehicle), mean (hNaV1.2; -7.33724 Log M): 0.01 | hNav1.2 current (352)/(Vehicle), mean (hNaV1.2; -7.38722 Log M): 0 | hNav1.2 current (352)/(Vehicle), mean (hNaV1.2; -7.85387 Log M): 0.01 | hNav1.2 current (352)/(Vehicle), mean (hNaV1.2; -8.30103 Log M): 0.01 | IC50 (hNaV1.2; Vh -45 mV, HEK-293): 6.9 µM | IC50 (hNaV1.6): 0.051 µM | hNav1.6 current in (352)/(Vehicle), mean (hNaV1.6; -5 Log M): 0.96 | hNav1.6 current in (352)/(Vehicle), mean (hNaV1.6; -5.47716 Log M): 0.91 | hNav1.6 current in (352)/(Vehicle), mean (hNaV1.6; -5.95429 Log M): 0.87 | hNav1.6 current in (352)/(Vehicle), mean (hNaV1.6; -6.47756 Log M): 0.83 | hNav1.6 current in (352)/(Vehicle), mean (hNaV1.6; -6.91009 Log M): 0.68 | hNav1.6 current in (352)/(Vehicle), mean (hNaV1.6; -6.95468 Log M): 0.66 | hNav1.6 current in (352)/(Vehicle), mean (hNaV1.6; -7.38722 Log M): 0.57 | hNav1.6 current in (352)/(Vehicle), mean (hNaV1.6; -7.4318 Log M): 0.52 | hNav1.6 current in (352)/(Vehicle), mean (hNaV1.6; -7.85387 Log M): 0.25 | hNav1.6 current in (352)/(Vehicle), mean (hNaV1.6; -8.30103 Log M): 0.16 | hNav1.6 current in (352)/(Vehicle), mean (hNaV1.6; -8.39794 Log M): 0.12 | hNav1.6 current in (352)/(Vehicle), mean (hNaV1.6; -9.34679 Log M): 0.01
